# What was measured:
# [1] = Stability: platinum drug release after incubation, quantified by ICP-MS; assay type: physicochemical; conditions: 48 h incubation with cellular medium at 37° C.
# Method: The stability of these conjugates was compared with the stability of the conjugates of the invention. […] The stability tests were based on inductively coupled plasma mass spectroscopy ICP-MS quantifications of platinum drug release after incubation of both systems.
# [2] = Zeta potential of nanoparticles and conjugates; assay type: physicochemical; conditions: pH 7.0
# Method: The zeta potential of nanoparticles and conjugates was determined using a Malvern ZetaSizer Analyzer (Malvern Instruments, UK). These measurements were performed with control of the pH (7.0).
# [3] = system: A549 tumor cells; assay: MTT assay of the conjugates in tumoral cells; assay type: cell-based, human; conditions: 48 h
# Method: Cells were plated in a multiwell-96 plate (Iwaki) at 4×10^3 cells/well and 24 hours later the medium was changed for treatments. Tetrazolium salt 3-(4,5-dimethylthiazol-2-yl)-2,5-diphenyltetrazoliumbromide (MTT, Acros Organics) was used for mitochondrial activity evaluation in cell viability studies 24 and 48 hours post-treatments. Plates were measured in MicroPlate Reader Model 550 (BIO-RAD) and data were processed with Excel and SPSS software. Using absorbance measurements [time zero, (Az), control growth, (C), and test growth in the presence of drug at the various concentration levels (Ai)], the percentage growth was calculated at each of the drug concentration levels. The assays were done with three cellular cancer lines: HeLa, A549 and HEK.
# A and G represent the control values at 0 and 48 h respectively.
# [4] = system: A549 lung tumoral cells; assay: Animal assay: tumour size; assay type: in vivo; conditions: SCID mice, A549 flank tumours, fifteen days; cisplatin 30 mg per Kg; example 4.1 100 ml of 1.9 mg platinum drug per litre, one intra-peritoneal dose
# Method: (§1) Fifteen SCID mice were choosen for the in vivo experiment. Mouse were injected 20 106 A549 lung tumoral cells in their flanks. Three random groups of five mice each were prepared. Then we waited until the tumour grew to an easily measurable size. The first group (A) was given no treatment. The second group (B) was given mild doses of commercial cisplatin (30 mg per Kg animal weight). The third group (C) was treated with the conjugates of example 4.1 with […] of 1.9 mg of platinum drug per litre in one intra-peritoneal dose. Tumour size (as a sign of therapeutical success) and animal weight (as a sign of secondary effects) were measured every three days. After fifteen days the experiments were stopped.
# [5] = set-up: species or system SCID mice; conditions: mouse, in vivo
# Method: as §1
molecule,measurement,setting,value
"AuNP(NP:4 nm)-MUA-cisplatin [example 5, reference compound]",release of platinum drug from the nanoparticle,[1],release of platinum drug from the nanoparticle was only observed
AuNP(NP:13 nm)-MUA [example 2.1],ζ-potential,[2],−65.8 mV
same,effect on A549 lung tumoral cells viability (MTT),[3],did not elicit any response
"N.N.[Cl][Pt][Cl] [commercial cisplatin, cisplatin, reference compound]",tumour size,[4],reduction of tumour size
same,animal weight (sign of secondary effects),[5],loose of body weight
same,kidney and hepatic dysfunction (preliminary biochemical measurements),[5],did not indicate any kidney and hepatic significant dysfunction
"N.N.O.O.O=[N+]([O-])[O-].O=[N+]([O-])[O-].[Pt+2] [example 3, cis-[Pt(NH3)2(H2O)2](NO3)2]",effect on A549 lung tumoral cells viability (MTT),[3],did not elicit any response
